Laboratory results: patent US20260241036A1, “CHEMOGENETICS-BASED THERAPY FOR NEUROLOGICAL DISORDERS” (GATEWAY BIOTECHNOLOGY, INC., priority 2023, published 2026)

Experiments:
[1] = tested on: excitatory neurons of the IC; assay: Sound-based avoidance detection (SBAD) testing in the chemogenetic model of tinnitus (excitatory DREADD injected into the IC, activated by CNO); format: in vivo, C57BL/6J mice
Description: (§1) Using a shuttle box divided into two compartments, mice were trained to cross from side to side with sound cues in the “Go” trials and remain still in the absence of sound in the “No-Go” trials for 15 days. […] The sound cues were randomly played as white noise or narrow-band noise at 5, 10, 16, 20, and 32 kHz with sound intensities randomly at 75, 80, or 85 dB. […] Additionally, a hurdle was added on training 11 to reinforce the training. After the 15th training day, mice were tested for 3 days to obtain a baseline score to be compared after noise exposure, as well as retraining for 3 days.
Following the successful completion of training so that mice reached a high percentage of success in the trials, the mice were exposed to a noise-induced trauma for tinnitus. To ensure that the mice still have their hearing, one ear was protected with an ear plug, while the other ear was exposed to the noise. The mice were placed in a sound booth where they were exposed to 120 dB broadband noise at 4-25 kHz for 2-4 hours. Following the noise exposure, the mice were housed for one month, and then tested to see if they have developed tinnitus. In these testing periods, the mice were tested for three days in the shuttle boxes, where they underwent the Go and No-Go trials, however in the No-Go trials the mice were not shocked, as it is expected that mice with tinnitus would cross compartments in the absence of a sound cue. The mice were continued to be shocked in the Go trials in order to ensure that they have retained their hearing and can hear the sound cues. […] To insure there is a significant difference in the No-Go trial scores, chi-square tests were completed comparing the post-noise exposure tests to the baseline tests. However, if tinnitus is not present in the mice, tests were done after waiting one more month, and another if needed.
A chemogenetic-based model was established by using DREADDs to target excitatory neurons of the IC to establish a more reliable and efficient tinnitus model in mice. […]

[2] = SBAD testing of a control group of SBAD trained animals given CNO, to rule out off-target effects of CNO; format: in vivo, mice; conditions: control group of three SBAD trained animals; CNO IP 5 mg/kg one hour before SBAD testing
Description: as §1
A chemogenetic-based model was established by using DREADDs to target excitatory neurons of the IC to establish a more reliable and efficient tinnitus model in mice. Stereotaxic microinjections of excitatory DREADDs [AAV8-CaMKIIa-HM3D-mCherry] were performed in these C57BL/6J mice, similar to previous studies (Saloman et al., 2016; Smith et al. 2016; Horii-Hayashi & Nishi 2021). Coordinates for microinjections were based on the atlas of Paxinos and Watson (2006) (AP: −5.00 mm, ML: +/−1.00 mm, DV: −1.50 mm). Mice were anesthetized with 5% isoflurane and placed in a stereotaxic head frame. During surgery mice were maintained at a 1.5-2% isoflurane level. Hair was removed and a vertical incision was made to expose the skull. The skull was leveled between bregma and lambda. […]

## C[N+]1([O-])CCN(C2=Nc3cc(Cl)ccc3Nc3ccccc32)CC1 [CNO, Clozapine-N-oxide]
[1]; of eight animals, one hour after IP injection of CNO, chi-squared, p<0.03
  number of animals tested positive for tinnitus: seven
[1]; one hour after IP injection of CNO, eight mice with 50 or 150 nL AAV8-CaMKIIa-HM3D-mCherry bilaterally in the IC, chi-squared, p<0.03
  animals tested positive for tinnitus (share of animals): 87%
[1]; post-hoc t-tests (Bonferoni adjusted), p<.001, mice with AAV8-CaMKIIa-HM3D-mCherry in the IC
  SBAD No-Go scores post-CNO injections compared to baseline and saline injections: significantly reduced
[2]
  Go and No-Go scores post-CNO injections (behavioral side effects of CNO): remained stable
